Measured values from patent US11584737B2, “Heterocyclic compound” (TAKEDA PHARMACEUTICAL COMPANY LIMITED, priority 2018, dated 2023).

Assays:
CDK12/CycK enzyme = CDK12/CycK enzyme (Homo sapiens, UniProt Q9NYV4); assay: Measurement of CDK12/CycK inhibitory activity (ULight-4E-BP1 peptide phosphorylation, LANCE); assay type: biochemical; conditions: inhibitory rate against CDK12/CycK at 1 μM test compound, ATP 10 μM or 500 μM
Description: Experimental Example 2: Measurement of CDK12/CycK Inhibitory Activity
A test compound dissolved in DMSO was added to a reaction solution (50 mM HEPES (pH 7.5), 10 mM MgCl2, 1 mM DTT, 0.01% Tween 20, 0.01% BSA) containing CDK12/CycK enzyme and ULight-labeled eIF4E-binding protein 1 (4E-BP1) (Thr37/Thr46) peptide (PerkinElmer), and the mixture was reacted at room temperature for 60 min. […] was added to give an ATP solution with a final concentration of 10 μM or 500 μM to start the enzyme reaction, and the mixture was reacted at room temperature for 60 min. A LANCE Detection buffer (PerkinElmer) containing europium-labeled anti-phosphorylation 4E-BP1 (Thr37/Thr46) antibody (PerkinElmer) and EDTA (final concentration 10 mM) was added to discontinue the reaction. After standing for 60 min, time decomposition fluorescence value (excitation 320 nm, emission 615 nm, 665 nm) was measured by Envision (PerkinElmer). The inhibitory rate (%) of the test compound against CDK12/CyclinK was calculated by the following formula. Inhibitory rate (%)=(1−(count of test compound−blank)÷(control−blank))×100
The count of the CDK12 enzyme reaction mixture under compound non-addition conditions is indicated as control, and the count under compound non-addition and CDK12/CycK enzyme non-addition conditions is indicated as blank.
The results measured by the above-mentioned method (inhibitory rate (%) of the signal value at 1 μM test compound relative to control is shown below.

[1] = tested on: A2780 intracellular CTD pSer2; assay: CTD pSer2 measurement using human ovarian cancer cell A2780 and In-Cell Western method; assay type: cell-based; conditions: inhibitory rate against A2780 intracellular CTD pSer2 at 1 μM test compound, 4 hr
Description: Experimental Example 3: CTD pSer2 Measurement Using Human Ovarian Cancer Cell A2780 and In-Cell Western Method
A2780 cells (ATCC) were seeded in a 96 well plate at 1.8×10^4 cells/well, and the cells were cultured overnight in a cell culture medium RPMI1640 (FUJIFILM Wako Pure Chemical Corporation) containing 10% FBS (fetal bovine serum) and 1% penicillin/streptomycin. A test compound dissolved in a cell medium was added, and the mixture was stood for 4 hr in a CO2 incubator (37° C.). The cells were fixed with ALTFiX (Falma) for 30 min, and washed 3 times with a washing buffer (20 mM Tris-HCl (pH 7.5), 500 mM NaCl, 0.1% Tween20). 0.1% Triton-X-100 diluted with PBS(−) was added and the mixture was incubated at room temperature for 15 min. Thereafter, a blocking buffer (LI-COR) was added, and the mixture was incubated at room temperature for 1 hr. An anti-CTD pS2 antibody (Abcam) suspended in an antibody diluent (blocking buffer: PBS(−)-diluted 0.1% Tween20=1:1) was added, and the mixture was incubated at room temperature for 1 hr. The mixture was […] with a washing buffer, IRDye800CW-labeled anti-goat antibody (LI-COR) was added, and the mixture was incubated at room temperature for 1 hr. The mixture was washed 3 times with a washing buffer, and the fluorescence wavelength at 800 nm was measured by Aerius (LI-COR).
The inhibitory rate (%) of the test compound against A2780 intracellular CTD pSer2 was calculated by the following formula. Inhibitory rate (%)=(1−(count of test compound−blank)÷(control−blank))×100
The count of the A2780 cell under compound non-addition conditions is indicated as control, and the count under compound non-addition and primary antibody non-addition conditions is indicated as blank.
The results measured by the above-mentioned method (inhibitory rate of the signal value at 1 μM test compound relative to control) are shown below.

CDK12/CycK complex = CDK12/CycK complex (Homo sapiens, UniProt Q9NYV4); assay: Measurement of CDK12 inhibitory activity by binding assay (TR-FRET, 66 nM BODIPY-FL-labeled AT-7519); conditions: inhibitory rate against CDK12 at 1 μM test compound, 66 nM BODIPY-FL-labeled AT-7519, 2 nM CDK12/CycK
CDK12/CycK complex, sequence (Q9NYV4 whole entry, species assumed): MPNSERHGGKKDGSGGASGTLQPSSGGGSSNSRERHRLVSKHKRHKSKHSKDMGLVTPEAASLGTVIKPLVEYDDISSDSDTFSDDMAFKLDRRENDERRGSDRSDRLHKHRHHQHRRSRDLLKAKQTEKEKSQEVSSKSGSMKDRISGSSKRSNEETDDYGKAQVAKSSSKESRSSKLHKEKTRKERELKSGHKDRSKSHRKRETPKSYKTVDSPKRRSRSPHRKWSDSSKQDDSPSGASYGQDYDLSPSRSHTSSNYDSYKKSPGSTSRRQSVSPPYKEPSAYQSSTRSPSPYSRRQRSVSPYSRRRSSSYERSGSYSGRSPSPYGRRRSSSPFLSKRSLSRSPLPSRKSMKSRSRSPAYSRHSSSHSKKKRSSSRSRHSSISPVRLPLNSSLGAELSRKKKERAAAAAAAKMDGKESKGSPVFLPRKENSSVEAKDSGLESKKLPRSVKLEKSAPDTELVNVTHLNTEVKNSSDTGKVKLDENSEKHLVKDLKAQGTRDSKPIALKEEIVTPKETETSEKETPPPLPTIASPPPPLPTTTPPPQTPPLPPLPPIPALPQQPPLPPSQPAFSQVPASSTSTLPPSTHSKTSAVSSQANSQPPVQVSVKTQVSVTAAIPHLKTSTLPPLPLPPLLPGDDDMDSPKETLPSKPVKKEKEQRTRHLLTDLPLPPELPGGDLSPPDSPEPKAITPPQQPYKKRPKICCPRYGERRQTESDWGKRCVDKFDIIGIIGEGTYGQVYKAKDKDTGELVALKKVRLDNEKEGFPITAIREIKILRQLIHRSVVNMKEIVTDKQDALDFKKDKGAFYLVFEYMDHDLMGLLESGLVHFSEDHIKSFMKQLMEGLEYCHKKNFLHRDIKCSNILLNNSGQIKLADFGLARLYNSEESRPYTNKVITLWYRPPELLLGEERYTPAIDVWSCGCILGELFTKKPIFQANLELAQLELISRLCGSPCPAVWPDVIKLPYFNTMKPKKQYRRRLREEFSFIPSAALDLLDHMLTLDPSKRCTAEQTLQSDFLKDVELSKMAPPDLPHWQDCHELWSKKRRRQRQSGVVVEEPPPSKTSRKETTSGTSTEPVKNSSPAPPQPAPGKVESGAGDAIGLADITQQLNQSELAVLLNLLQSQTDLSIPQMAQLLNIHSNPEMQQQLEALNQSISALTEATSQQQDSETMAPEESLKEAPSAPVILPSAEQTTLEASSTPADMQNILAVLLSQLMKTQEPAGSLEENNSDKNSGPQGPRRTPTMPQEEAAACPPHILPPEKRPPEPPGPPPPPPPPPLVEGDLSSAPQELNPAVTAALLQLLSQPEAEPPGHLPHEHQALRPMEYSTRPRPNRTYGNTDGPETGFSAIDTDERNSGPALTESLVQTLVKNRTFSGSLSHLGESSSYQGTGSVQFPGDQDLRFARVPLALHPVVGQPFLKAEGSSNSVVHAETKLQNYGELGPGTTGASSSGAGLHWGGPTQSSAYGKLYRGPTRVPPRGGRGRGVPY
CDK12/CycK complex, sequence (O75909 whole entry partner, species assumed): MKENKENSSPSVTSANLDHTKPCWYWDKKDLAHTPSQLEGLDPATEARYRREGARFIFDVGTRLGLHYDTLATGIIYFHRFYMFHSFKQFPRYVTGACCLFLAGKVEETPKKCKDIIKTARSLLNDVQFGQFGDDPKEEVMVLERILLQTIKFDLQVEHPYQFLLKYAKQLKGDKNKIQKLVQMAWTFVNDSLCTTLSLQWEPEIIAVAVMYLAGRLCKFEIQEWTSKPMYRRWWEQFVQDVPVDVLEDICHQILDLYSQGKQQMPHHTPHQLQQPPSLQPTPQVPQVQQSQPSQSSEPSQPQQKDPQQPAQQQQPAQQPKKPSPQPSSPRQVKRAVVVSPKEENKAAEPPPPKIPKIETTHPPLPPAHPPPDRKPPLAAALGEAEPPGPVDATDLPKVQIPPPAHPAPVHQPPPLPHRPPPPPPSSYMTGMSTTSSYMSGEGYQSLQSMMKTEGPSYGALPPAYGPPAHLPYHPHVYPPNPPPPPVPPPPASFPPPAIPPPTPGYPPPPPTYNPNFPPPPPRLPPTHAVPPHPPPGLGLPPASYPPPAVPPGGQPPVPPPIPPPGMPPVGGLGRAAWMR
In short: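 His-tagged CDK12/CycK (2 nM) premixed with 66 nM BODIPY-FL-AT-7519 tracer, 0.2 nM Tb-streptavidin and 0.4 nM biotin-anti-His, then incubated with compound 120 min at room temperature. Tracer displacement read as BODIPY-FL/Tb TR-FRET ratio; percent inhibition normalized to no-compound control and 3 μM AT-7519 blank.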

A2780 cells = assay: In vitro proliferation suppression test (CellTiter-Glo); assay type: cell-based, human; conditions: Homo sapiens, 72 h, A2780 cell proliferation inhibitory rate at 1 μM test compound, three days
In short: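 A2780 cells in RPMI1640 with 10% FBS were exposed to 1 μM compound for three days at 37° C, 5% CO2. CellTiter-Glo luminescence read; inhibition (%) calculated relative to wells without compound.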

CDK12/CycK enzyme, sequence (Q9NYV4 whole entry, species assumed): as the sequence (Q9NYV4 whole entry, species assumed) above
CDK12/CycK enzyme, sequence (O75909 whole entry partner, species assumed): as the sequence (O75909 whole entry partner, species assumed) above

| SMILES | inhibition at 1 µM (CDK12/CycK enzyme) [%] | inhibition at 1 µM [1] [%] | inhibition at 1 µM (CDK12/CycK complex) [%] | inhibition at 1 µM (A2780 cells) [%] |
| --- | --- | --- | --- | --- |
| COc1ncc(-c2ccc(N(C(=O)NCc3ccccc3)[C@H]3CC[C@H](Nc4ncc(C#N)c(NC5COC5)n4)CC3)nc2)cn1 [Example 553, 3-benzyl-1-(trans-4-((5-cyano-4-(oxetan-3-ylamino)pyrimidin-2-yl)amino)cyclohexyl)-1-(5-(2-methoxypyrimidin-5-yl)pyridin-2-yl)urea] | 106 | 74 | 100 | 98 |
| Cn1cc(-c2ccc(N(C(=O)NCc3ccccc3)[C@H]3CC[C@H](Nc4ncc(C(F)(F)F)c(N5CCC6(COC6)C5)n4)CC3)nc2)cn1 [Example 566, 3-benzyl-1-(5-(1-methyl-1H-pyrazol-4-yl)pyridin-2-yl)-1-(trans-4-((4-(2-oxa-6-azaspiro[3.4]octa-6-yl)-5-(trifluoromethyl)pyrimidin-2-yl)amino)cyclohexyl)urea] | 100 | 72 | 102 | 98 |
| Cn1cc(-c2ccc(N(C(=O)NCc3ccccc3)[C@H]3CC[C@H](Nc4ncc(C(F)(F)F)c(NC5COC5)n4)CC3)nc2)cn1 [Example 574, 3-benzyl-1-(5-(1-methyl-1H-pyrazol-4-yl)pyridin-2-yl)-1-(trans-4-((4-(oxetan-3-ylamino)-5-(trifluoromethyl)pyrimidin-2-yl)amino)cyclohexyl)urea] | 99 | 83 | 103 | 97 |
| Cn1cc(-c2cnc(N(C(=O)NCc3ccccc3)[C@H]3CC[C@H](Nc4ncc(C#N)c(NC5COC5)n4)CC3)nc2)cn1 [Example 575, 3-benzyl-1-(trans-4-((5-cyano-4-(oxetan-3-ylamino)pyrimidin-2-yl)amino)cyclohexyl)-1-(5-(1-methyl-1H-pyrazol-4-yl)pyrimidin-2-yl)urea] | 97 | 63 | 101 | 99 |
| COc1ncc(-c2ccc(N(C(=O)NCc3ccccc3)[C@H]3CC[C@H](Nc4ncc(C#N)c(-c5cn[nH]c5C)n4)CC3)nc2)cn1 [Example 577, 3-benzyl-1-(trans-4-((5-cyano-4-(5-methyl-1H-pyrazol-4-yl)pyrimidin-2-yl)amino)cyclohexyl)-1-(5-(2-methoxypyrimidin-5-yl)pyridin-2-yl)urea] | 98 | 87 | 88 | 94 |
| COc1ncc(-c2ccc(N(C(=O)OCc3ccccc3)[C@H]3CC[C@H](Nc4ncc(C#N)c(NC5COC5)n4)CC3)nc2)cn1 [Example 581, benzyl (trans-4-((5-cyano-4-(oxetan-3-ylamino)pyrimidin-2-yl)amino)cyclohexyl) (5-(2-methoxypyrimidin-5-yl)pyridin-2-yl)carbamate] | 102 | 70 | 88 | 99 |
| COc1ncc(-c2ccc(N(C(=O)NCc3ccccc3F)[C@H]3CC[C@H](Nc4ncc(C#N)c(NC5COC5)n4)CC3)nc2)cn1 [Example 582, 1-(trans-4-((5-cyano-4-(oxetan-3-ylamino)pyrimidin-2-yl)amino)cyclohexyl)-3-(2-fluorobenzyl)-1-(5-(2-methoxypyrimidin-5-yl)pyridin-2-yl)urea] | 110 | 72 | 91 | 97 |
| COc1ncc(-c2ccc(N(C(=O)NCc3ccccc3)[C@H]3CC[C@H](Nc4ncc(C(F)(F)F)c(OC5COC5)n4)CC3)nc2)cn1 [Example 588, 3-benzyl-1-(5-(2-methoxypyrimidin-5-yl)pyridin-2-yl)-1-(trans-4-((4-(oxetan-3-yloxy)-5-(trifluoromethyl)pyrimidin-2-yl)amino)cyclohexyl)urea] | 100 | 75 | 99 | 98 |
| COc1ncc(-c2ccc(N(C(=O)NCc3ccccc3)[C@H]3CC[C@H](Nc4ncc(C(F)(F)F)c(NC5COC5)n4)CC3)nc2)cn1 [Example 589, 3-benzyl-1-(5-(2-methoxypyrimidin-5-yl)pyridin-2-yl)-1-(trans-4-((4-(oxetan-3-ylamino)-5-(trifluoromethyl)pyrimidin-2-yl)amino)cyclohexyl) urea] | 115 | 78 | 100 | 97 |
| COc1ncc(-c2cnc(N(C(=O)NCc3ccccc3)[C@H]3CC[C@H](Nc4ncc(C#N)c(N5CCCC(O)CC5)n4)CC3)nc2)cn1 (stereo partly drawn) [Example 596, 3-benzyl-1-(trans-4-((5-cyano-4-(4-hydroxyazepan-1-yl)pyrimidin-2-yl)amino)cyclohexyl)-1-(2′-methoxy-5,5′-bipyrimidin-2-yl)urea] | 100 | 71 | 103 | 99 |
| COc1ncc(-c2ccc(N(C(=O)OCc3ccccc3)[C@H]3CC[C@H](Nc4ncc(C(F)(F)F)c(N5CC(F)(CO)C5)n4)CC3)nc2)cn1 [Example 600, benzyl (trans-4-((4-(3-fluoro-3-(hydroxymethyl)azetidin-1-yl)-5-(trifluoromethyl)pyrimidin-2-yl)amino)cyclohexyl) (5-(2-methoxypyrimidin-5-yl)pyridin-2-yl)carbamate] | 108 | 81 | 83 | 93 |
| COc1ncc(-c2ccc(N(C(=O)OCc3ccccc3)[C@H]3CC[C@H](Nc4ncc(C#N)c(N5CC(F)(CO)C5)n4)CC3)nc2)cn1 [Example 603, benzyl (trans-4-((5-cyano-4-(3-fluoro-3-(hydroxymethyl)-azetidin-1-yl)pyrimidin-2-yl)amino)cyclohexyl) (5-(2-methoxypyrimidin-5-yl)pyridin-2-yl)carbamate] | 103 | 81 | 76 | 93 |
| Cn1cc(-c2ccc(N(C(=O)NCc3ccccc3)[C@H]3CC[C@H](Nc4ncc(C#N)c(NC5(C)COC5)n4)CC3)nc2)cn1 [Example 605, 3-benzyl-1-(trans-4-((5-cyano-4-((3-methyloxetan-3-yl)amino)-pyrimidin-2-yl)amino)cyclohexyl)-1-(5-(1-methyl-1H-pyrazol-4-yl)pyridin-2-yl)urea] | 100 | 73 | 90 | 98 |
| COc1ncc(-c2cnc(N(C(=O)OCc3ccccc3)[C@H]3CC[C@H](Nc4ncc(C#N)c(NC5COC5)n4)CC3)nc2)cn1 [Example 608, benzyl (trans-4-((5-cyano-4-(oxetan-3-ylamino)pyrimidin-2-yl)amino)cyclohexyl) (2′-methoxy-5,5′-bipyrimidin-2-yl)carbamate] | 102 | 44 | 98 | 99 |
